In brackets after ≈: the same amount, converted by molar mass.
Experiments:
[1] = test system: Staphylococcus aureus (ATCC 29213); assay: Agar diffusion, zone of inhibition; type: cell-based; details: S.aureus, compounds at 50 mg mL^−1; for zone of inhibition at 50 mg/mL: Staphylococcus aureus, ATCC29213
From the text: The antibacterial and antifungal activities were reported utilizing the method described by the Clinical & Laboratory Standards Institute.^[ [31], [32] ^] Agar diffusion method was used to determine the antimicrobial activity of the synthesized substances. The media used were mueller hinton agar (MHA) for bacteria and sabouraud‐dextrose agar (SDA) for fungi (Merck), as recommended by the manufacturer.
The synthesized compounds were initially investigated for their antimicrobial activity to elucidate the potential therapeutic utility against various pathogenic microbes using the agar plate diffusion method. The compounds were tested at a concentration of 50 mg mL^−1, and the antibiotics (ampicillin, kanamycin, and amphotericin B) were used at 5 mg mL^−1. […] K.pneumoniae and B.cereus were resistant to ampicillin, while they were susceptible to kanamycin with inhibition values of 30 and 26 mm, respectively. No antimicrobial activity of the compounds was observed against E.faecalis, S.typhimurium, K.pneumoniae, and for the fungus compared to Amphotericin B (20 mm). […]
Staphylococcus aureus (ATCC 29213) […]
ATCC: American Type Culture Collection; NRRL: Northern Regional Research Laboratory The compounds 2(a-c) obtained could only be completely solubilised with dimethyl sulphoxide (DMSO) and the highest possible stock solutions of 50 mg.mL-1 were prepared. To these wells 50 μl of the previously prepared substances were transferred using sterile micropipette tips. For comparison, Ampicillin and kanamycin antibiotics for bacteria and Amphotericin B antibiotics for fungus were used as positive controls and DMSO was used as negative control. The prepared petri plates were kept at +4°C for about 1 hour and then the bacterial cultures were incubated at 37°C for 18-24 hours and mould cultures at 27-30°C for 48-72 hours. The zones formed were measured millimetrically with callipers. The experiments were performed with three repetitions. […]

[2] = test system: Escherichia coli (ATCC 25922); assay: Broth microdilution MIC; type: cell-based; details: ATCC25922, E.coli
Method: Escherichia coli (ATCC 25922) […]
ATCC: American Type Culture Collection; NRRL: Northern Regional Research Laboratory The compounds 2(a-c) obtained could only be completely solubilised with dimethyl sulphoxide (DMSO) and the highest possible stock solutions of 50 mg.mL-1 were prepared. […]
3.1. Determination of Minimum Inhibition Concentration (MIC)
The minimum inhibition concentration (MIC) values of the compounds 2(a-c) against the test bacteria used in the study were determined according to the broth microdilution method.[1-2] MHB or SDB was used as test medium and bacterial and yeast suspensions were prepared at 0.5 Mc Farland concentration for each test bacteria. Double layer serial dilutions were prepared in "U" type 96-well microtiter plates. Medium+bacteria suspensions containing only medium in the first row, medium+bacteria in the second row and the final concentrations of the synthesised substances in the other rows between 25 mg.mL-1 and […] were added to the wells with a final volume of 200
μL. Ampicillin, Kanamycin and Amphotericin B standard antibiotics were used as positive controls.
Bacteria were incubated at 37±0.1 °C and C. albicans at 30±0.1 °C for 24-48 hours and the lowest concentration without growth was determined as MIC. Tests were performed in two parallel runs and mean values were given as a result. […]

[3] = Cytotoxicity on healthy cells, CCK8 cell viability; type: cell-based, mouse; details: mouse, L929 mouse fibroblast cells, read-out: Cytotoxic activity IC50; for IC50 at 24 h: L929, 24 h; for IC50 at 48 h: L929, 48 h
From the text: (§1) We investigated the cytotoxic effects of acrylonitrile derivatives 2(a–c) on human lung carcinoma (A549, CCL‐185) cells purchased from American Culture Collection and human breast carcinoma (MCF‐7) cells purchased from Republic of Turkey Ministry of Agriculture and Forestry Şap Institute, (HUKUK, 00092502), In addition, mouse fibroblast cells (L929, CCL‐1) purchased from American Culture Collection were used to observe the effects of the compounds on healthy cells. In 25 T Flask, A549 cells were grown in dulbecco's modified eagle's medium, MCF‐7, and L929 cells were grown in eagle's minimum essential medium (EMEM), 10% fetal bovine serum and 1% Penicillin‐Streptomycin at 37 °C in a 5% CO2 and 100% humidified incubator. Cell proliferation was checked every day. Cells were taken into the experiment when the cell density reached 70% to 80%. (See Supporting Information for experimental preparation of biological studies).
(§2) The compounds 2a, 2b, and 2c were dissolved in 99.8% Dimethyl sulfoxide (DMSO) respectively, as
(§3) 10 mM main stock. To prepare the doses of acrylonitrile compounds used in the experiment to be
(§4) applied to the cells, five different concentrations of 31.25; 62.5; 125; 250 and 500 μM were prepared
(§5) by diluting the main stock solutions (10 mM) with the medium selected according to the cells. 5-
(§6) Fluorouracil (5-FU) was selected as a positive control in the study. After the 5-FU main stock solution
(§7) was dissolved with DMSO to be 10 mM, the concentrations to be used were diluted with the selected
(§8) media and made ready for the experimental plan. The concentrations used for 5-FU were prepared in
(§9) the same doses used for acrylonitrile derivatives. For the negative control group, groups containing
(§10) only media and no substance were used. Prepared acrylonitrile compounds and 5-FU concentrations
(§11) were added to the wells in three replicates for each dose, and their effects on cell viability at 24 and 48
(§12) Trypan blue solution (Gibco, 1525061) was used to distinguish between living and dead cells in the
(§13) study. Trypan blue passes uncontrollably through the membrane of dead cells that have lost their cell
(§14) membrane integrity and stains the cell blue. Living cells, on the other hand, are not stained because
(§15) Live cell counts were performed using trypan blue using a
(§16) cell counter (Logos Luna II).
(§17) In order to detach the cells adhering to the flasks from the bottom, 500 μL of 0.25% Trypsin-EDTA
(§18) (Gibco, 15400054) solution was added and treated for five minutes.
(§19) detach from the bottom under an inverted microscope (Zeiss Primovert, Germany), medium containing
(§20) 10% FBS was added. After centrifugation at 300 g for 5 minutes and discarding the medium, 1 mL of
(§21) medium was added and the cells were seeded into 96-well culture dishes as 1x10^4 cells in 100 μL per
(§22) Cell Counting Kit 8 (CCK8; Medchem, 146436) was used to determine cell viability. After adding 20 μL
(§23) of CCK8 solution to each well in the dark, 96-well culture dishes were wrapped with aluminum foil and
(§24) kept in a CO2 incubator at 37 °C for 2 hr. Then, it was automatically read with a microplate reader
(§25) (Chromate) at 450 and 630 nm wavelengths. The following formula was used to determine cell
(§26) % Viability = (Sample Well−Blank) (Negative Control−Blank)×100 (1)
(§27) The half-maximal inhibitory concentration (IC50) was calculated as 50% cell death causing dose
(§28) compared to the control group. All data are given as the mean percent fraction of control ± SEM.
(§29) Statistical analysis was done by one-way analysis of variance (ANOVA), followed by Tukey’s multiple
(§30) comparison tests. IBM SPSS Statistics 22 was used to utilize statistical analysis. […]

[4] = test system: mouse fibroblast cells (L929, CCL‐1); assay: Cytotoxicity on healthy cells, CCK8 cell viability; type: cell-based
From the text: as §1, §2, §3, §4, §5, §6, §7, §8, §9, §10, §11, §12, §13, §14, §15, §16, §17, §18, §19, §20, §21, §22, §23, §24, §25, §26, §27, §28, §29, §30

Row | Compound | zone of inhibition [1] [mm] | zone of inhibition at 50 mg/mL [1] [mm] | MIC [2] [mg/mL] | IC50 at 24 h [3] [µM] | IC50 at 48 h [3] [µM] | decrease in cell viability ([4]; L929, 24 h, 31.25 μM) [%] | decrease in cell viability ([4]; L929, 24 h, 62.5 μM) [%] | decrease in cell viability ([4]; L929, 24 h, 125 μM) [%] | decrease in cell viability ([4]; L929, 24 h, 250 μM) [%] | decrease in cell viability ([4]; L929, 24 h, 500 μM) [%] | IC50 ([4]; L929, 24 h, read-out: Cytotoxic activity IC50) [µM] | decrease in cell viability ([4]; L929, 48 h, 31.25 μM) [%] | decrease in cell viability ([4]; L929, 48 h, 62.5 μM) [%] | decrease in cell viability ([4]; L929, 48 h, 125 μM) [%] | decrease in cell viability ([4]; L929, 48 h, 250 μM) [%] | decrease in cell viability ([4]; L929, 48 h, 500 μM) [%]
1 | COc1ccc(/C=C(\C#N)c2ccc(F)cc2)cc1 [2b] | 13 ± 0 | 13 | 25 (≈ 98.7 mM) | < 250 | < 31.2 | 45 | 44 | 43 | 50 | 75 | 250 | 52 | 54 | 53 | 53 | 80
2 | COc1ccc(/C=C(\C#N)c2cc(C(F)(F)F)cc(C(F)(F)F)c2)cc1 [2c] | 14 ± 1.41 | 14 | 25 (≈ 67.3 mM) | 410 | 391 | 8 | 10 | 19 | 12 | 71 | – | 14 | 16 | 20 | 24 | 80
3 | COc1ccc(C=C(C#N)c2ccccc2)cc1 [2a, 3‐(4‐methoxyphenyl)‐2‐phenylacrylonitrile] | 14 ± 0.71 | 14 | 2.5 (≈ 10.6 mM) | 351 | < 31.2 | 13 | 19 | 16 | 35 | 73 | – | 52 | 53 | 55 | 54 | 87
